Experimental data published in patent publication US11246907B2, “Immunosuppressive agents and their use in therapy” (Norwegian University of Science and Technology, priority 2013, dated 2022).

How the values were obtained:
[1] = system: peripheral blood monocytes; assay: Multiplex (27-plex) cytokine secretion of TLR-ligand stimulated peripheral blood monocytes; type: cell-based, human; details: LPS or polyIC, 4 h; ATX-101 4 μM, SB203580 10 μM, LY294002 5 and 10 μM, SC66 1 μg/ml
Description: Measured cytokine levels were normalized to cytokine levels from monocytes stimulated with TLR ligand alone. A two fold or higher increase in cytokine level after TLR stimulation was defined as cytokine induction. […] Isolated monocytes were stimulated with 10 ng/ml LPS and 40 μg/ml polyIC alone and in combination with 4 μM ATX-101 for 4 h. […] DRAQS was used for nuclear staining. Bar, 5 μm.
Data is from one representative donor out of three; and (B-E) show multiplex analysis of cytokine levels produced by peripheral blood monocytes stimulated with 10 ng/ml LPS (B and D, same donor) and 40 μg/ml polyIC (C and E, same donor) after 4 h. (B and C) Stimulated-monocytes were treated with 4 μM ATX-101, 10 μM SB203580 (p38 MAPK inhibitor), and combination of ATX-101 and SB203580. (D and E) Stimulated-monocytes were treated with 4 μM ATX-101, 5 and 10 μM LY294002 (PI3K class I inhibitor), and combination of ATX-101 and LY294002. Measured cytokine levels were normalized to cytokine levels from monocytes stimulated with TLR ligand alone. A two fold or higher increase in cytokine level after TLR stimulation was defined as cytokine induction. # Value is too low to be visible in the column diagram; ? cytokine measurement was out of range. Data is from representative experiments out of two.
(§1) Measured cytokine levels were normalized to cytokine levels from monocytes stimulated with TLR ligand alone. A two fold or higher increase in cytokine level after TLR stimulation was defined as cytokine induction. ? Cytokine measurement was out of range. Data is from one experiment out of two.
Measured cytokine levels were normalized to cytokine levels from monocytes stimulated with TLR ligand alone. Data is from one donor. We obtained similar results for IL-6 secretion in two other donors.
as §1, with “# Value is too low to be visible in the column diagram; 0” for “?”
Peripheral blood mononuclear cells were isolated from A+ buffy coats (Blood Bank, St. Olav's University Hospital, Trondheim, Norway) by density gradient centrifugation (Lymphoprep; Axis-Shield PoC, Oslo, Norway). Mononucleated cells were seeded at 4 million cells/ml in serum-free RPMI 1640 supplemented with glutamine and gentamicin. After 60-90 min the adherent cell population was washed before cultured in medium with 10% heat-inactivated human serum (Blood Bank, St. Olav's University Hospital). ATX-101 (4 μM [Innovagen, Lund, Sweden]), ATX-A (4 μM, [Innovagen]) (ATX-A is represented in SEQ ID NO: 1206 and contains the motif RALVK (SEQ ID NO: 1207), which is not capable of interacting with PCNA), p38 inhibitor (SB203580, 10 μM, [Sigma-Aldrich]), PI3K inhibitor (LY294002, 5 and 10 μM, [Sigma-Aldrich]), and Akt inhibitor (Akt inhibitor XVIII SC66, 1 μg/ml, [Sigma-Aldrich]) were added in serum-free medium and incubated for 5 min before LPS (10 ng/ml, [Sigma-Aldrich]), polylC (40 μg/ml, [GE Healthcare, Little Chalfont, UK]), PAM3Cys (10 ng/ml, [Invivogen, San Diego, Calif., USA]) or R848 (10 μg/ml, [Invivogen]) were added in serum-containing medium. The cells were incubated for 4 h before the supernatants were harvested and frozen prior to further cytokine analysis by the 27-plex assay (Bio-Plex ProTM Human cytokine 27-plex assay).

[2] = system: monocytes; assay: Annexin staining / flow cytometry of monocytes (apoptosis); type: cell-based, human; details: 4 hours, monocytes
Description: Annexin staining was used to determine cell viability and cells were counted using flow cytometry.
Peripheral blood […] were isolated from A+ buffy coats (Blood Bank, St. Olav's University Hospital) by density gradient centrifugation (Lymphoprep; Axis-Shield PoC, Oslo, Norway). The adherent cell fraction after 90 minute incubation, termed monocytes, were washed twice with HANKS and maintained in RPMI 1640 supplemented with 2 mM glutamine, […] gentamicin and 25% heat-inactivated HS over-night. Cells were cultured at 37° C. in a humidified atmosphere of 5% CO2 over-night. […] An R11 peptide and no peptide treatment were used as controls. After 4 hours, the cells were washed once in PBS, and re-suspended in buffer as recommended by the manufacturer of the Annexin V-Pacific Blue kit (Invitrogen). Cells were identified monocytes according to size (FSC) and granularity (SSC).

Question: How did the “cytokine secretion from stimulated monocytes, single agent” value [1] turn out when `C[S+]([O-])c1ccc(-c2nc(-c3ccncc3)c(-c3ccc(F)cc3)[nH]2)cc1` (stereo not drawn) [SB203580, reference compound] was run?
Answer: reduced cytokine secretion

Question: `N=C(N)NCCC[C@H](NC(=O)[C@H](CCCNC(=N)N)NC(=O)[C@H](CCCNC(=N)N)NC(=O)[C@H](CCCNC(=N)N)NC(=O)[C@H](CCCNC(=N)N)NC(=O)[C@H](CCCNC(=N)N)NC(=O)[C@H](CCCNC(=N)N)NC(=O)[C@H](CCCNC(=N)N)NC(=O)[C@H](CCCNC(=N)N)NC(=O)[C@H](CCCNC(=N)N)NC(=O)[C@@H](N)CCCNC(=N)N)C(=O)O` [R11, reference compound] was tested. Which “Percentage of annexin positive cells” value ([2]; 5μM peptide treatment) did it give?
Answer: 55%

Question: And the “Percentage of annexin positive cells” value ([2]; 10 μM peptide treatment)?
Answer: 56%

Question: How did the “Percentage of annexin positive cells” value ([2]; 5μM peptide treatment) turn out when `CC[C@H](C)[C@H](NC(=O)[C@H](CCCCN)NC(=O)[C@H](CCCNC(=N)N)NC(=O)[C@H](CCCCN)NC(=O)[C@H](CCCCN)NC(=O)[C@H](CCCCN)NC(=O)[C@H](Cc1c[nH]c2ccccc12)NC(=O)[C@@H]1CCCN1C(=O)[C@@H](NC(=O)[C@H](CC(C)C)NC(=O)[C@H](Cc1c[nH]c2ccccc12)NC(=O)[C@H](CCCNC(=N)N)NC(=O)[C@H](CC(=O)O)NC(=O)[C@@H](N)CCSC)C(C)C)C(=O)N[C@@H](CCCNC(=N)N)C(=O)N[C@@H](CCCNC(=N)N)C(=O)N[C@@H](CCCNC(=N)N)C(=O)N[C@@H](CCCNC(=N)N)C(=O)N[C@@H](CCCNC(=N)N)C(=O)N[C@@H](CCCNC(=N)N)C(=O)N[C@@H](CCCNC(=N)N)C(=O)N[C@@H](CCCNC(=N)N)C(=O)N[C@@H](CCCNC(=N)N)C(=O)N[C@@H](CCCNC(=N)N)C(=O)N[C@@H](CCCNC(=N)N)C(=O)O` [ATX-P] was run?
Answer: 65%

Question: And the “Percentage of annexin positive cells” value ([2]; 10 μM peptide treatment)?
Answer: 81%

Question: For `O=C1/C(=C/c2ccncc2)CCC/C1=C\c1ccncc1` [SC66, reference compound], which “cytokine secretion from stimulated monocytes, single agent” value [1] is on record?
Answer: reduces cytokine secretion of monocytes to or below the basal levels
